Data: patent US10406227B2, “Photoactivated molecules for light-induced modulation of the activity of electrically excitable cells and methods of using same” (University of Southern California, priority 2012, dated 2019)

Assays:
[1] = Time-resolved emission spectroscopy (luminescence decay kinetics); type: physicochemical; settings: degassed dichloromethane; excited 355 nm, monitored 560 nm
Protocol: Time-resolved emission spectroscopy was used to characterize the MLCT excited state of the D-B-A complex. Luminescence decay kinetics were recorded in degassed dichloromethane. The D-B-A complex was excited at 355 nm with an 8-ns laser pulse and luminescence was monitored at 560 nm. […] For comparison, the MLCT lifetime of the reference complex, [Re(CO)3(bpy)(py)]+, determined under identical experimental conditions, is 550 ns.
While the rate of intramolecular ET is concentration independent, intermolecular quenching processes vary predictably with concentration. As such, it is possible to separate the two quenching mechanisms and obtain rate constants for each. Time-resolved luminescence measurements at a series of D-B-A concentrations allow a second order intermolecular quenching rate to be determined. As the concentration was increased, shorter lifetimes were recorded in both dichloromethane and acetonitrile.
This lifetime includes both the natural decay of the photoexcited rhenium as well as quenching through intramolecular electron transfer. […] As the difference in lifetime of the D-B-A and model complex is quite small, these values should be considered upper bounds.

chromaffin cells = experiment: Cell-attached membrane perforation test (capacitive charging transient); type: cell-based, mouse; settings: positive control in pipette; within 5 minutes of gigaseal formation
Source text: FIGS. 5A-5H depict data from various experiments related to characteristics of RubpyC17-loaded cells. […] Inset images shown to the right of trace confirmed proper integration of RubpyC17 in patched cells. FIGS. 5C-5E show the light-induced action potential firing in chromaffin cells was not due to biophysical changes in voltage-gated ion channels as there were no significant changes in current-voltage relationships (C-D) nor in steady-state activation curve (E) in RubpyC17-loaded chromaffin cells before (open circle) or during ([…]) light illumination. […] Peak inward currents from each stimulation jump were plotted against corresponding stimulating voltages (n=6). […] Data from representative cell is shown (n=5). […] Currents resulting from capacitor-like behavior of chromaffin cell membranes during hyperpolarizing jumps to −85 mV from a resting membrane potential of −80 mV were recorded 5 min following giga-seal formation for amphoterecin B (bottom trace) or 10 min following giga-seal formation for RubpyC17 (top trace).
Finally, to test whether illumination of RubpyC17 incorporated in cell membranes causes nonspecific membrane poration or other damage, 18 μM RubpyC17 was loaded inside a patch pipette and attached to a cell (gigaseal formation) in the cell-attached configuration. […]

Compound: [C-]#[O+].[C-]#[O+].[C-]#[O+].[Re+].c1ccc(-c2ccccn2)nc1.c1ccncc1 [[Re(CO)3(bpy)(py)]+]
- luminescence (MLCT) lifetime [1]: 550 ns

Compound: C[C@@H]1[C@H](O)[C@@H](C)/C=C/C=C/C=C/C=C/C=C/C=C/C=C/[C@H](O[C@@H]2O[C@H](C)[C@@H](O)[C@H](N)[C@@H]2O)C[C@@H]2O[C@](O)(C[C@@H](O)C[C@@H](O)[C@H](O)CC[C@@H](O)C[C@@H](O)CC(=O)O[C@H]1C)C[C@H](O)[C@H]2C(=O)O [amphotericin B, reference compound]
- capacitive charging transient (membrane perforation) (chromaffin cells): a sizable capacitive charging transient
